Assay results reported in the kinase profiling compilation of Christmann-Franck et al. (2016).
Each block holds one compound with its values, some of them ahead of it.

Assays:
Assay in all cases: Caliper, Mobility shift assay off-chip
PAK4 (human) = PAK4 (human) (UniProt O96013)
DDR2 (human) = DDR2 (human) (UniProt Q16832)
PRKCH (human) = PRKCH (human) (UniProt P24723)
PAK6 (human) = PAK6 (human) (UniProt Q9NQU5)
FER (human) = FER (human) (UniProt P16591)
TAB1 (human) = TAB1 (human) (UniProt Q15750)
GSG2 (human) = GSG2 (human) (UniProt Q8TF76)
MAP4K4 (human) = MAP4K4 (human) (UniProt O95819)
MKNK2 (human) = MKNK2 (human) (UniProt Q9HBH9)
HIPK2 (human) = HIPK2 (human) (UniProt Q9H2X6)
FGR (human) = FGR (human) (UniProt P09769)
EPHA4 (human) = EPHA4 (human) (UniProt P54764)
TAOK2 (human) = TAOK2 (human) (UniProt Q9UL54)
RPS6KA6 KD1 KD2 (human) = RPS6KA6 KD1 KD2 (human) (UniProt Q9UK32)
SLK (human) = SLK (human) (UniProt Q9H2G2)
CDC42BPB (human) = CDC42BPB (human) (UniProt Q9Y5S2)
CAMK2G (human) = CAMK2G (human) (UniProt Q13555)
PRKCI (human) = PRKCI (human) (UniProt P41743)
TNK2 (human) = TNK2 (human) (UniProt Q07912)
PDPK1 (human) = PDPK1 (human) (UniProt O15530)
FES (human) = FES (human) (UniProt P07332)
DYRK1B (human) = DYRK1B (human) (UniProt Q9Y463)
JAK1 JH1 JH2 (human) = JAK1 JH1 JH2 (human) (UniProt P23458)
ROS1 (human) = ROS1 (human) (UniProt P08922)
JAK3 JH1 JH2 (human) = JAK3 JH1 JH2 (human) (UniProt P52333)
MERTK (human) = MERTK (human) (UniProt Q12866)
FLT3 (human) = FLT3 (human) (UniProt P36888)
CSNK1G3 (human) = CSNK1G3 (human) (UniProt Q9Y6M4)
EPHB2 (human) = EPHB2 (human) (UniProt P29323)
TBK1 (human) = TBK1 (human) (UniProt Q9UHD2)
MAPKAPK3 (human) = MAPKAPK3 (human) (UniProt Q16644)
CAMK2D (human) = CAMK2D (human) (UniProt Q13557)
CHEK2 (human) = CHEK2 (human) (UniProt O96017)
CAMK2B (human) = CAMK2B (human) (UniProt Q13554)

PAK4 (human), sequence (O96013 whole entry, looked up): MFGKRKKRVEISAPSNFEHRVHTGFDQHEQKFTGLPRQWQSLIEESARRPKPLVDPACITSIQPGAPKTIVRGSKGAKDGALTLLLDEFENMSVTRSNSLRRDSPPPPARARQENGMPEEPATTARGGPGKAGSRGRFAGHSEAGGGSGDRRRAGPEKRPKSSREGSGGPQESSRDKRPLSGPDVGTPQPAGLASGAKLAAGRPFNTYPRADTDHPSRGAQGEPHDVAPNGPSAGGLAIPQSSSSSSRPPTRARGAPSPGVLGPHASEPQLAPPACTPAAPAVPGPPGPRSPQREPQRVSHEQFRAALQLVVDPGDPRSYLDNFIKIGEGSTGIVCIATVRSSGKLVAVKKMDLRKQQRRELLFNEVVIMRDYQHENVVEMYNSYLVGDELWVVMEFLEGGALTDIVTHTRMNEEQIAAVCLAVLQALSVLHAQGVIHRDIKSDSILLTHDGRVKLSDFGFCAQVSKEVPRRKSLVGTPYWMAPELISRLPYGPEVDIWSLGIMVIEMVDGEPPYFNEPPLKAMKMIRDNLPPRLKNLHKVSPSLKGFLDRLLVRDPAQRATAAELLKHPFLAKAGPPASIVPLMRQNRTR
SLK (human), sequence (Q9H2G2 whole entry, looked up): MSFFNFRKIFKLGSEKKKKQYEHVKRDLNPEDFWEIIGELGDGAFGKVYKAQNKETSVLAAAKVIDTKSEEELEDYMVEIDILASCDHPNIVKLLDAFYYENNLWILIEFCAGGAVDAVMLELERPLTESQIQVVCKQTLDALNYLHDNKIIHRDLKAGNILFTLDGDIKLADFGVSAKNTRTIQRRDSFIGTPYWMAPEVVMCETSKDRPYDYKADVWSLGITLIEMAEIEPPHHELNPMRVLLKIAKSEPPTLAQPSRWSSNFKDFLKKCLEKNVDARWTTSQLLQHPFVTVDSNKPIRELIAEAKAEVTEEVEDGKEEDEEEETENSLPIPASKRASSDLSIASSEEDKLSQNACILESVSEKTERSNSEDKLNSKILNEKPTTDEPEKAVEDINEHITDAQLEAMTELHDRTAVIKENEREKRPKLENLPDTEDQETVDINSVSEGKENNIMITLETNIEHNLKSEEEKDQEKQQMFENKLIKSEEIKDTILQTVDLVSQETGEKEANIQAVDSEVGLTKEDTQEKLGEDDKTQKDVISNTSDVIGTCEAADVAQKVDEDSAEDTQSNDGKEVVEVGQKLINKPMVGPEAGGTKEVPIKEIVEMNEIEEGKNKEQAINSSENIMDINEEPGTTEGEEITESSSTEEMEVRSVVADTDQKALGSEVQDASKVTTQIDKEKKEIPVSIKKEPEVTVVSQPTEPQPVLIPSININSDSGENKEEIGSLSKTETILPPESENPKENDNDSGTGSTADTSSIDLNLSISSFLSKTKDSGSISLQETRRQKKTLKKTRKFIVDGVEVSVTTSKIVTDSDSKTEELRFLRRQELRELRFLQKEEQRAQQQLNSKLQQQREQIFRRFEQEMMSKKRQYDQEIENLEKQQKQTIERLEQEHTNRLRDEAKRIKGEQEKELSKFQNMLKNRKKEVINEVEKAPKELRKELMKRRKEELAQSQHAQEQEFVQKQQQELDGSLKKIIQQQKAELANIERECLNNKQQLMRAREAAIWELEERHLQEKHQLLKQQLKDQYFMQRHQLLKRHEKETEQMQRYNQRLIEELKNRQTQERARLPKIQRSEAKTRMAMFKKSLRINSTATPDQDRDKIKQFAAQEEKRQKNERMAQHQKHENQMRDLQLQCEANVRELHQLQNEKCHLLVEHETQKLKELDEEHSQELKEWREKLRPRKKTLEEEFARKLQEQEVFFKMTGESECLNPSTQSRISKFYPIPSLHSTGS
FGR (human), sequence (P09769 whole entry, looked up): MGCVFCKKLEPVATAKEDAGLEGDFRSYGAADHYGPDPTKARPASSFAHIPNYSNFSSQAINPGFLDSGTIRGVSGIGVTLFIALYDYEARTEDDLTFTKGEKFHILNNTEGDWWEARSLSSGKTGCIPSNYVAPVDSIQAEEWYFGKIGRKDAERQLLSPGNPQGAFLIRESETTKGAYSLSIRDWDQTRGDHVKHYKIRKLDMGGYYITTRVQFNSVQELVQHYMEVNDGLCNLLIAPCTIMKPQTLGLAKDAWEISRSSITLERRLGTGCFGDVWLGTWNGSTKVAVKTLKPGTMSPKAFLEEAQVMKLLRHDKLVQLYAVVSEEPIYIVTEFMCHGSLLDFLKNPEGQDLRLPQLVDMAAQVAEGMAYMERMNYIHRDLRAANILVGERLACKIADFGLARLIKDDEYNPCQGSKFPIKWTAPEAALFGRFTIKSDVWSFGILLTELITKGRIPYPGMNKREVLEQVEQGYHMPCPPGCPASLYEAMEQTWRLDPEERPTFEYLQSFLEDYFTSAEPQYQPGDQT
FER (human), sequence (P16591 whole entry, looked up): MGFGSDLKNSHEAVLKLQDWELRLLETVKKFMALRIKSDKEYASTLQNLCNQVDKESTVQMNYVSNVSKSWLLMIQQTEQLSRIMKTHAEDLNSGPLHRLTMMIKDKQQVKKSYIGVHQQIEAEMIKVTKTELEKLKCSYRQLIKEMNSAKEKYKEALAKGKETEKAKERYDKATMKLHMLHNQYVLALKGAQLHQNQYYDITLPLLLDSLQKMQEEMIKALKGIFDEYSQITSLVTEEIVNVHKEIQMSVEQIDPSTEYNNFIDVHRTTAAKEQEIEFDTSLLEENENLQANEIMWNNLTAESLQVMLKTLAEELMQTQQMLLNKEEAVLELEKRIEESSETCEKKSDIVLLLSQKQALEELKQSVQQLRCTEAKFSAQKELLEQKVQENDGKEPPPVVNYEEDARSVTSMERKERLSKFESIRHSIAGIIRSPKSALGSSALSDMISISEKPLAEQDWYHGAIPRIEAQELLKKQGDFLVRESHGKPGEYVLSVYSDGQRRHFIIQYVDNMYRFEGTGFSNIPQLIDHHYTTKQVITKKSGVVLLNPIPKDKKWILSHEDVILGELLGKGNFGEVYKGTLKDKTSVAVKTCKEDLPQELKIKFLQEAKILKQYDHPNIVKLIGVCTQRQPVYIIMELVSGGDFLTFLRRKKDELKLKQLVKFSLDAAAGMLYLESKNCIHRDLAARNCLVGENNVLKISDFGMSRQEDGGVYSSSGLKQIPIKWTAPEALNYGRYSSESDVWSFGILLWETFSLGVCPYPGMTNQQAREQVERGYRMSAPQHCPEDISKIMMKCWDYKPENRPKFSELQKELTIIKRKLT
CDC42BPB (human), sequence (Q9Y5S2 whole entry, looked up): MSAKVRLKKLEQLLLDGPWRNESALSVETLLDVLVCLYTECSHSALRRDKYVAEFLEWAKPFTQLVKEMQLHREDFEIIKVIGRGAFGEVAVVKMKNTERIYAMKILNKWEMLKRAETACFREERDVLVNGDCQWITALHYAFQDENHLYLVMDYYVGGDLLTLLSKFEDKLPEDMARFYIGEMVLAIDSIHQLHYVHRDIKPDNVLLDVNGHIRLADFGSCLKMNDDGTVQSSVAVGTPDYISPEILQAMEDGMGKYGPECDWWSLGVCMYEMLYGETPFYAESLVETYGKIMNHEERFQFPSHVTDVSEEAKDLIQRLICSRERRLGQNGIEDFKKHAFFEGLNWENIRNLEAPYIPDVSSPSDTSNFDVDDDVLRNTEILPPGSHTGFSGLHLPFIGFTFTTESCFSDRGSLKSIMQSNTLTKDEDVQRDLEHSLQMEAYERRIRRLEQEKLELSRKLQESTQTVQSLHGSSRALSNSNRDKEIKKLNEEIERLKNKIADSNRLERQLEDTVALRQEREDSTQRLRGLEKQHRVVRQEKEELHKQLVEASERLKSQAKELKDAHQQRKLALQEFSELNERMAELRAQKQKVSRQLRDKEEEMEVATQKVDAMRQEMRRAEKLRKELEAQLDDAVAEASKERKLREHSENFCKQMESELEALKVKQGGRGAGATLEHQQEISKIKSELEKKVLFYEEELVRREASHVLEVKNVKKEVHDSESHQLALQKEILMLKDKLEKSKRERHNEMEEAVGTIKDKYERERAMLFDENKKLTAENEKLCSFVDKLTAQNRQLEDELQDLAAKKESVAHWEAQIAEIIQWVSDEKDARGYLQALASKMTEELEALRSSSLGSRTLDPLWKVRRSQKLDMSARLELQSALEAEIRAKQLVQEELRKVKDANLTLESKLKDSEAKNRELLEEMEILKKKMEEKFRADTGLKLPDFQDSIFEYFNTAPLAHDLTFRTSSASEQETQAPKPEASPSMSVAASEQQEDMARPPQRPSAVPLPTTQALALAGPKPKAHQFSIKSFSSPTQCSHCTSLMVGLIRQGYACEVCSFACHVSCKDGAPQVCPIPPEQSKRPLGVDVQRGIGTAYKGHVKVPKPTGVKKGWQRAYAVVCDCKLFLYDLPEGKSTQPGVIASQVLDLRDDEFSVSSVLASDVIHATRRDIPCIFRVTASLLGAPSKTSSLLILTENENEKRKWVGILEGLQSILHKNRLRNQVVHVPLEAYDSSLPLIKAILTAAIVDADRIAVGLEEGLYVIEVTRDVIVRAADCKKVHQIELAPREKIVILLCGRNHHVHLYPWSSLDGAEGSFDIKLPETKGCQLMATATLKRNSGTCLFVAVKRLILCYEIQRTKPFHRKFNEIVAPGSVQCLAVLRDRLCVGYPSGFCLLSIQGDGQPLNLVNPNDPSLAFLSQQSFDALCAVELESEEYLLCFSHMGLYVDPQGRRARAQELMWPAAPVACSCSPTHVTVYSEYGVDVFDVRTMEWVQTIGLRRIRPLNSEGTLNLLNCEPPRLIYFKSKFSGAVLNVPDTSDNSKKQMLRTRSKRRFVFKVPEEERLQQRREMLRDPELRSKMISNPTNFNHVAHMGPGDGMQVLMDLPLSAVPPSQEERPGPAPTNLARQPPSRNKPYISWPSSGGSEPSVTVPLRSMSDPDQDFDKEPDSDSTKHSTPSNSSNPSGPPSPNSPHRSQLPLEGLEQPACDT

inhibition (PAK4 (human); compound 0.001 µM): 3.3%
inhibition (PAK4 (human); compound 0.02 µM): 0.8%
inhibition (DDR2 (human); compound 0.001 µM): -1.6%
inhibition (DDR2 (human); compound 0.02 µM): 2.2%
inhibition (PRKCH (human); compound 0.001 µM): 4.5%
inhibition (PRKCH (human); compound 0.02 µM): 6.2%
inhibition (PAK6 (human); compound 0.001 µM): -7%
inhibition (PAK6 (human); compound 0.02 µM): 0.1%
inhibition (FER (human); compound 0.001 µM): 5.9%
inhibition (FER (human); compound 0.02 µM): 3.9%
inhibition (TAB1 (human); compound 0.001 µM): 1.4%
inhibition (TAB1 (human); compound 0.02 µM): 1.1%
inhibition (GSG2 (human); compound 0.001 µM): -2.8%
inhibition (GSG2 (human); compound 0.02 µM): -0.9%
inhibition (MAP4K4 (human); compound 0.001 µM): -2.3%
inhibition (MAP4K4 (human); compound 0.02 µM): 1.2%
inhibition (MKNK2 (human); compound 0.001 µM): 0.4%
inhibition (MKNK2 (human); compound 0.02 µM): 1.4%
inhibition (HIPK2 (human); compound 0.001 µM): -4.6%
inhibition (HIPK2 (human); compound 0.02 µM): -0.1%
inhibition (FGR (human); compound 0.001 µM): 8.2%
inhibition (FGR (human); compound 0.02 µM): 25%
inhibition (EPHA4 (human); compound 0.001 µM): -6.8%
inhibition (EPHA4 (human); compound 0.02 µM): -4.3%
inhibition (TAOK2 (human); compound 0.001 µM): -4.1%
inhibition (TAOK2 (human); compound 0.02 µM): -6.1%
inhibition (RPS6KA6 KD1 KD2 (human); compound 0.001 µM): -7%
inhibition (RPS6KA6 KD1 KD2 (human); compound 0.02 µM): -0.1%
inhibition (SLK (human); compound 0.001 µM): -5.4%
inhibition (SLK (human); compound 0.02 µM): 10.3%
inhibition (CDC42BPB (human); compound 0.001 µM): -8.6%
inhibition (CDC42BPB (human); compound 0.02 µM): 2.9%
inhibition (CAMK2G (human); compound 0.001 µM): 0.2%
inhibition (CAMK2G (human); compound 0.02 µM): -1.1%
inhibition (PRKCI (human); compound 0.001 µM): 3%
inhibition (PRKCI (human); compound 0.02 µM): 3.9%
inhibition (TNK2 (human); compound 0.001 µM): -7.8%
inhibition (TNK2 (human); compound 0.02 µM): -8.8%
inhibition (PDPK1 (human); compound 0.001 µM): -3.6%
inhibition (PDPK1 (human); compound 0.02 µM): -6.4%
inhibition (FES (human); compound 0.001 µM): 2.9%
inhibition (FES (human); compound 0.02 µM): 1.5%
inhibition (DYRK1B (human); compound 0.001 µM): 3.6%
inhibition (DYRK1B (human); compound 0.02 µM): -0.4%
inhibition (JAK1 JH1 JH2 (human); compound 0.001 µM): -7.4%
inhibition (JAK1 JH1 JH2 (human); compound 0.02 µM): -3.3%
inhibition (ROS1 (human); compound 0.001 µM): -0.6%
inhibition (ROS1 (human); compound 0.02 µM): 10.8%
inhibition (JAK3 JH1 JH2 (human); compound 0.001 µM): 4.6%
inhibition (MERTK (human); compound 0.001 µM): 1%
inhibition (MERTK (human); compound 0.02 µM): 3.9%
inhibition (FLT3 (human); compound 0.02 µM): 14.8%
inhibition (CSNK1G3 (human); compound 0.001 µM): -3.7%
inhibition (CSNK1G3 (human); compound 0.02 µM): -2.5%
inhibition (EPHB2 (human); compound 0.001 µM): -6.4%
inhibition (EPHB2 (human); compound 0.02 µM): -5.2%
inhibition (TBK1 (human); compound 0.001 µM): -3.3%
inhibition (TBK1 (human); compound 0.02 µM): -2%
inhibition (MAPKAPK3 (human); compound 0.001 µM): -0.7%
inhibition (MAPKAPK3 (human); compound 0.02 µM): -5.2%
inhibition (CAMK2D (human); compound 0.001 µM): 3%
inhibition (CAMK2D (human); compound 0.02 µM): 2.4%
Compound: CNC(=O)c1ccccc1Sc1ccc2c(/C=C/c3ccccn3)n[nH]c2c1

inhibition (PAK4 (human); compound 0.02 µM): 0.9%
inhibition (PAK4 (human); compound 0.2 µM): 8%
inhibition (DDR2 (human); compound 0.02 µM): 34.2%
inhibition (DDR2 (human); compound 0.2 µM): 85%
inhibition (PRKCH (human); compound 0.02 µM): 6.7%
inhibition (PRKCH (human); compound 0.2 µM): 4.3%
inhibition (PAK6 (human); compound 0.02 µM): -5.8%
inhibition (PAK6 (human); compound 0.2 µM): -5.8%
inhibition (FER (human); compound 0.02 µM): 15.1%
inhibition (FER (human); compound 0.2 µM): 40.1%
inhibition (TAB1 (human); compound 0.02 µM): 6.5%
inhibition (TAB1 (human); compound 0.2 µM): 6%
inhibition (GSG2 (human); compound 0.02 µM): -1.1%
inhibition (GSG2 (human); compound 0.2 µM): 4.3%
inhibition (MAP4K4 (human); compound 0.02 µM): 3.9%
inhibition (MAP4K4 (human); compound 0.2 µM): 24.6%
inhibition (MKNK2 (human); compound 0.02 µM): 2.7%
inhibition (MKNK2 (human); compound 0.2 µM): 1.5%
inhibition (HIPK2 (human); compound 0.02 µM): 1.4%
inhibition (HIPK2 (human); compound 0.2 µM): 3.3%
inhibition (FGR (human); compound 0.02 µM): 18.8%
inhibition (FGR (human); compound 0.2 µM): 54.2%
inhibition (EPHA4 (human); compound 0.02 µM): -4.7%
inhibition (EPHA4 (human); compound 0.2 µM): 0.2%
inhibition (CHEK2 (human); compound 0.02 µM): 4.1%
inhibition (CHEK2 (human); compound 0.2 µM): 4.1%
inhibition (TAOK2 (human); compound 0.02 µM): 3.7%
inhibition (TAOK2 (human); compound 0.2 µM): 22.3%
inhibition (RPS6KA6 KD1 KD2 (human); compound 0.02 µM): 1.2%
inhibition (RPS6KA6 KD1 KD2 (human); compound 0.2 µM): 1.7%
inhibition (SLK (human); compound 0.02 µM): 9%
inhibition (SLK (human); compound 0.2 µM): 12.3%
inhibition (CDC42BPB (human); compound 0.02 µM): 1.8%
inhibition (CDC42BPB (human); compound 0.2 µM): 2.9%
inhibition (CAMK2G (human); compound 0.02 µM): 1.9%
inhibition (CAMK2G (human); compound 0.2 µM): 2%
inhibition (PRKCI (human); compound 0.02 µM): 3.4%
inhibition (PRKCI (human); compound 0.2 µM): 2.1%
inhibition (TNK2 (human); compound 0.02 µM): -5.7%
inhibition (TNK2 (human); compound 0.2 µM): -3.6%
inhibition (PDPK1 (human); compound 0.02 µM): -5%
inhibition (PDPK1 (human); compound 0.2 µM): -3.3%
inhibition (DYRK1B (human); compound 0.02 µM): -4.3%
inhibition (DYRK1B (human); compound 0.2 µM): 7.4%
inhibition (JAK1 JH1 JH2 (human); compound 0.02 µM): -2.2%
inhibition (JAK1 JH1 JH2 (human); compound 0.2 µM): 0.8%
inhibition (CAMK2B (human); compound 0.02 µM): -4.2%
inhibition (CAMK2B (human); compound 0.2 µM): -5.5%
inhibition (ROS1 (human); compound 0.02 µM): 17.8%
inhibition (ROS1 (human); compound 0.2 µM): 69.7%
inhibition (JAK3 JH1 JH2 (human); compound 0.02 µM): 4.1%
inhibition (JAK3 JH1 JH2 (human); compound 0.2 µM): 7.7%
inhibition (MERTK (human); compound 0.02 µM): 3%
inhibition (MERTK (human); compound 0.2 µM): 15.6%
inhibition (FLT3 (human); compound 0.02 µM): 24.7%
inhibition (FLT3 (human); compound 0.2 µM): 69.9%
inhibition (CSNK1G3 (human); compound 0.02 µM): 0.7%
inhibition (CSNK1G3 (human); compound 0.2 µM): -0.3%
inhibition (EPHB2 (human); compound 0.02 µM): -1.3%
inhibition (EPHB2 (human); compound 0.2 µM): -2.7%
inhibition (TBK1 (human); compound 0.02 µM): -0.2%
inhibition (TBK1 (human); compound 0.2 µM): -1.1%
inhibition (MAPKAPK3 (human); compound 0.02 µM): 2.3%
inhibition (MAPKAPK3 (human); compound 0.2 µM): 1.6%
inhibition (CAMK2D (human); compound 0.02 µM): 4.9%
inhibition (CAMK2D (human); compound 0.2 µM): 4.6%
Compound: Cc1ccc(Nc2nccc(N(C)c3ccc4c(C)n(C)nc4c3)n2)cc1S(N)(=O)=O
